Measured values from US20060286047A1, “Methods for determining the sequence of a peptide motif having affinity for a substrate” (priority 2005, published 2006).

How the values were obtained:
[1] = ELISA assay of peptide motif binding to bleached hair; set-up: species or system human; Binding Activity % Relative to Control: concentration or dose not given beside the values; conditions: for Binding Activity % Relative to Control: bleached human hair, biotinylated peptide, streptavidin-HRP/TMB, A450, relative to positive control SEQ ID NO:124; for binding activity to hair compared to the positive control peptide (in words): bleached hair ELISA, summary of Table 7
Method: The hair samples used were 6-inch (15.2 cm) medium brown human hairs obtained from International Hair Importers and Products (Bellerose, N.Y.). The hairs were placed in 90% isopropanol for 30 min at room temperature and then washed 5 times for 10 min each with deionized water. The hairs were air-dried overnight at room temperature. To prepare the bleached hair samples, the air-dried medium brown human hairs were placed in 6% H2O2, which was adjusted to pH 10.2 with ammonium hydroxide, for 10 min at room temperature and then washed 5 times for 10 min each with deionized water. The hairs were air-dried overnight at room temperature.
Ten hair-binding peptide motifs from Table 6 were selected for testing of their hair-binding activity. The ten peptides were synthesized by SynPep (Dublin, Calif.). […] The control peptide had the sequence TPPELLHGDPRS, given as SEQ ID NO:124. The peptides were biotinylated by adding a biotinylated lysine residue at the C-terminus of the amino acid binding sequences for detection purposes and an amidated cysteine was added to the C-terminus of the sequence.
Bleached hair samples were prepared and placed into wells of a custom 24-well biopanning apparatus, as described in Example 1. The hair was blocked with blocking buffer (SuperBlock™ from Pierce Biotechnology, Inc., Rockford, Ill.) at room temperature for 1 h, followed by six washes with TBST-0.5%, 2 min each, at room temperature. Various concentrations of biotinylated, binding peptide were added to each well, incubated for 15 min at 37° C., and washed six times with TBST-0.5%, 2 min each, at room temperature. Then, streptavidin-horseradish peroxidase (HRP) conjugate (Pierce Biotechnology, Inc.) was added to each well (1.0 μg per well), and incubated for 1 h at room temperature. After the incubation, the conjugate solution was removed and the wells were washed six times with TBST-0.5%, 2 min each, at room temperature. TMB substrate (200 μL) (Pierce Biotechnology, Inc.) was added to each well and the color was allowed to develop for between 5 to 30 min, typically for 10 min, at room temperature. Then, stop solution (200 μL of 2 M H2SO4) was added to each well and the solutions were transferred to a 96-well plate and the A450 was measured using a microplate spectrophotometer (Molecular Devices, Sunnyvale, Calif.). The resulting absorbance values, were used to calculate the binding activity of each hair-binding peptide motif relative to the positive control sequence.

[2] = control peptide as identified by Huang et al.; cited from earlier work

| Binding Activity % Relative to Control [1] | Substance | affinity for hair (in words) [2] | binding activity to hair compared to the positive control peptide (in words) [1] |
| --- | --- | --- | --- |
| 100.0% | 124 (TPPELLHGDPRS; Control hair-binding peptide) [compound 124] | high affinity for hair | – |
| 4.4% | 121 (SPIKRPPLS; Hair-binding peptide motif) [compound 121] | – | low binding activity |
| 127.1% | 123 (RLLRLLRLLRLL; Hair-binding peptide motif) [compound 123] | – | comparable to or greater than that of the positive control peptide |
| 88.3% | 120 (THPLSNTT; Hair-binding peptide motif) [compound 120] | – | – |
| 94.5% | 119 (SNTTPSPSP; Hair-binding peptide motif) [compound 119] | – | comparable to or greater than that of the positive control peptide |

Continued, substance first:

| Substance | Binding Activity % Relative to Control [1] | affinity for hair (in words) [2] | binding activity to hair compared to the positive control peptide (in words) [1] |
| --- | --- | --- | --- |
| 99 (QPLSV; Hair-binding peptide motif) [compound 99] | 84.6% | – | – |
| 98 (RPPLD; Hair-binding peptide motif) [compound 98] | 90.3% | – | comparable to or greater than that of the positive control peptide |
| 90 (PLSTY; Hair-binding peptide motif) [compound 90] | 53.0% | – | – |
| 95 (YSPIK; Hair-binding peptide motif) [compound 95] | 1.9% | – | low binding activity |
| 92 (TLGQA; Hair-binding peptide motif) [compound 92] | 86.6% | – | – |
| 97 (FPPVP; Hair-binding peptide motif) [compound 97] | 81.5% | – | – |
